From ChEMBL document CHEMBL1201862, “PubChem BioAssay data set” (2004)
Activity calls are given as the source filed them.

Key:
[1] = molecular target: T1, Rac GTPase-activating protein 1 (Homo sapiens, UniProt Q9H0H5); experiment: blockers of MgcRacGAP-driven Rac1 GTP hydrolysis – biochemical, ADP Hunter fluorescence, primary and confirmatory, confirmation (AID 624330); format: functional
T1 sequence (Q9H0H5 whole entry): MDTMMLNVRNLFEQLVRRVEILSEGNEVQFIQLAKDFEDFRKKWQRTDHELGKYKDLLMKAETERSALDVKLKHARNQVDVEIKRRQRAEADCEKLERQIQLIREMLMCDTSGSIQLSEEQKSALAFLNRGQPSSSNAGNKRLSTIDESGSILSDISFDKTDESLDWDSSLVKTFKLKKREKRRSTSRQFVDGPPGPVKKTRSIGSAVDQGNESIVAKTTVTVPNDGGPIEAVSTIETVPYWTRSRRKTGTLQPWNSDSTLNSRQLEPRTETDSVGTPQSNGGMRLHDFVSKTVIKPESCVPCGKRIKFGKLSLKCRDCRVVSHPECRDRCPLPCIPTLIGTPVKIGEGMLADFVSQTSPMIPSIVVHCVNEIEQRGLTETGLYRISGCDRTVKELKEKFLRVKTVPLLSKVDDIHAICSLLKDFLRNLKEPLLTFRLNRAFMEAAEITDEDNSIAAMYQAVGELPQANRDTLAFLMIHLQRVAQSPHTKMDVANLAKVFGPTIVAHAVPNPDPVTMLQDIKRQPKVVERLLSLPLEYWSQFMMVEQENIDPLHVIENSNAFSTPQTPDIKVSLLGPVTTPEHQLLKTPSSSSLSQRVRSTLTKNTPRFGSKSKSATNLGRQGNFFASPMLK

[2] = tested on: Streptococcus sp. 'group A'; experiment: Streptococcus pyogenes SK(-)GAS viability under kanamycin – luminescence, BacTiterGlo, confirmation, counter-screen for streptokinase expression inhibitor project, dose response (AID 1900); format: functional, organism-based
Streptokinase A = molecular target: T2, Streptokinase A (Streptococcus pyogenes serotype M1, UniProt P10520); experiment: viability-normalized secreted streptokinase activity reduction – plasminogen activation absorbance, OD405, dose response (AID 1914); format: functional, Streptococcus pyogenes M1 GAS;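 note: secreted streptokinase activity via plasminogen activation per viability signal from cell pellet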
T2 sequence (P10520 whole entry): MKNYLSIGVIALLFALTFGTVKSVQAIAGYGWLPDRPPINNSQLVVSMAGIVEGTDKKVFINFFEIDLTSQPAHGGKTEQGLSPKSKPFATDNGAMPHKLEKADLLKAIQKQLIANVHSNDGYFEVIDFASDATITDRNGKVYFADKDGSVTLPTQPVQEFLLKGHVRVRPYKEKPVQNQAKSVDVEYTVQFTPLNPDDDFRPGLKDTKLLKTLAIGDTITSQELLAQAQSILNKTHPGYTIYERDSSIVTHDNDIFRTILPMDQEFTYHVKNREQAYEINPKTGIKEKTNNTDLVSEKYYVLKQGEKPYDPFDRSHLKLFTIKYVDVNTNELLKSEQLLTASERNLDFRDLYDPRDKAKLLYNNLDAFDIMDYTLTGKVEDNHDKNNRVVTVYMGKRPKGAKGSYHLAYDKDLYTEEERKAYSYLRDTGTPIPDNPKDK

Streptococcus = experiment: GAS UMAA2166 growth inhibition – luminescence, BacTiterGlo, counter-screen for streptokinase expression inhibitor project, dose response (AID 1915); format: functional, organism-based;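 note: potency for reduction of bacterial viability or growth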
Cytochrome P450 2C19 = Cytochrome P450 2C19 (Homo sapiens, UniProt P33261); experiment: Cytochrome panel assay with activity outcomes. Panel member name: p450-cyp2c19 Compounds with AC50 equal or less than 10 uM are considered active; format: functional; details: read-out: AC50
Sequence of Cytochrome P450 2C19 (P33261 whole entry): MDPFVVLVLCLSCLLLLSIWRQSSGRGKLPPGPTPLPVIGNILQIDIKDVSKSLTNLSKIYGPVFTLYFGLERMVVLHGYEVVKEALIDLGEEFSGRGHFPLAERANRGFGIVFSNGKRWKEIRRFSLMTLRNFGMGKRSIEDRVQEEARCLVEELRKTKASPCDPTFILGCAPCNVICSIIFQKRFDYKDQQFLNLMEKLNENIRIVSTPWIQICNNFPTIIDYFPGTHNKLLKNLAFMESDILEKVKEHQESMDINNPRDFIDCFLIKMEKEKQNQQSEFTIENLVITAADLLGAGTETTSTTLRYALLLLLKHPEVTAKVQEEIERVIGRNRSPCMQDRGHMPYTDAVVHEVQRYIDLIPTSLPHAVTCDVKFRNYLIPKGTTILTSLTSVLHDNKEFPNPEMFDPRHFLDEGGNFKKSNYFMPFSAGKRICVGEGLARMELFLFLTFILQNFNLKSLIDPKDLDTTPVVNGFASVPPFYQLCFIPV

[3] = molecular target: T3, Corticotropin-releasing factor receptor 2/Corticotropin-releasing factor-binding protein (Homo sapiens, UniProt P24387+Q13324); experiment: Dose Response confirmation of uHTS hits for small molecule antagonists of the CRF-binding protein and CRF-R2 receptor complex.; format: functional; details: read-out: IC50_Mean
T3 sequence (Q13324 whole entry): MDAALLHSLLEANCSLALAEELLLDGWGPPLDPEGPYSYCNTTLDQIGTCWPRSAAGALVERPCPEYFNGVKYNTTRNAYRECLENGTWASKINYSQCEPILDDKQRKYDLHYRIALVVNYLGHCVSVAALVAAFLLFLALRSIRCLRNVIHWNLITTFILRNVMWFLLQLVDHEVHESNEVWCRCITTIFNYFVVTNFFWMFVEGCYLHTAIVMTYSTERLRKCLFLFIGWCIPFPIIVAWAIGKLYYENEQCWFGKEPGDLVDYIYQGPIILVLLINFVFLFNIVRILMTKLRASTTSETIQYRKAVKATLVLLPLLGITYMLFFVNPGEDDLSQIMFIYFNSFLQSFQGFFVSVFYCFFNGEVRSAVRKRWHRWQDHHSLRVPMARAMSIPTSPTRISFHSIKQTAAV
T3 sequence (P24387 whole entry): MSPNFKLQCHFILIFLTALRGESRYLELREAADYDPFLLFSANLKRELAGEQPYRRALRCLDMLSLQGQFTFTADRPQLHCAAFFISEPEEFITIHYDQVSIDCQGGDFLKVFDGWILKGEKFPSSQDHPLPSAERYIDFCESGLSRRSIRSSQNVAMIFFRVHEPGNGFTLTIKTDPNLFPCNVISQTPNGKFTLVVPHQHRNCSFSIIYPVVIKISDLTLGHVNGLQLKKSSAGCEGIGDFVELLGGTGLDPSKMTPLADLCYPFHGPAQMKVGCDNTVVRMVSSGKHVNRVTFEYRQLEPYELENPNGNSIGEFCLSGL

[4] = molecular target: T3, Corticotropin-releasing factor receptor 2/Corticotropin-releasing factor-binding protein; experiment: activators of CRF receptor 2 with binding protein – uHTS hits, confirmation (AID 602473); format: functional; details: read-out: EC50_Mean
Cytochrome P450 1A2 = molecular target: T4, Cytochrome P450 1A2 (Homo sapiens, UniProt P05177);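 note: PubChem cytochrome P450 panel assay, CYP1A2 panel member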
T4 sequence (P05177 whole entry): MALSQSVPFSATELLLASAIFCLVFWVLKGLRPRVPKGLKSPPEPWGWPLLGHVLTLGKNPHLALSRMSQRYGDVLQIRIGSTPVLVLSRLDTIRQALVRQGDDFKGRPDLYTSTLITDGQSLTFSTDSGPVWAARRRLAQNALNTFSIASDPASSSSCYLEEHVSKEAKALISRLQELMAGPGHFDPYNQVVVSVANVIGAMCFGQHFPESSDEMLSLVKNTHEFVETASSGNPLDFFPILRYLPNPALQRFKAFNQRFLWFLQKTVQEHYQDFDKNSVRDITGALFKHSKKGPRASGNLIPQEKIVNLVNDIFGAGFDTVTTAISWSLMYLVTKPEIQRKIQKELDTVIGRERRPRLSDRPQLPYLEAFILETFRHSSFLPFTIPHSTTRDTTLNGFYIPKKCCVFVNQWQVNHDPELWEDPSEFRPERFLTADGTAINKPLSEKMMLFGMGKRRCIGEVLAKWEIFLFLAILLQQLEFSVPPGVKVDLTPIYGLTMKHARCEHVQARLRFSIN

Cytochrome P450 2C9 = Cytochrome P450 2C9 (Homo sapiens, UniProt P11712)
Sequence of Cytochrome P450 2C9 (P11712 whole entry): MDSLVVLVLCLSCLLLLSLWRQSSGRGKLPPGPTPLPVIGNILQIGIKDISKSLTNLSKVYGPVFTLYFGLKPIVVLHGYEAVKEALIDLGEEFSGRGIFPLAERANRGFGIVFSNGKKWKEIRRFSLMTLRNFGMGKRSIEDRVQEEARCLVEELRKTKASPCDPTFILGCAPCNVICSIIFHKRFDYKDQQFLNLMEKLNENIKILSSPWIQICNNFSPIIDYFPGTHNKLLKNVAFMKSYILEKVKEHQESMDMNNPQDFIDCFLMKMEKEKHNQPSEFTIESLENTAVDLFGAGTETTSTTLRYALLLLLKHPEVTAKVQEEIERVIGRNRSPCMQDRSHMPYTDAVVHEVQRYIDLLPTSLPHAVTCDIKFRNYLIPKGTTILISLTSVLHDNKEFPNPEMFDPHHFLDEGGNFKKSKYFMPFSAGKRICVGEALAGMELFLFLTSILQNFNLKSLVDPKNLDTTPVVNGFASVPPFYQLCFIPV

Paired box protein Pax-8 = Paired box protein Pax-8 (Homo sapiens, UniProt Q06710); experiment: PAX8 transcriptional activity inhibition in RMG-I – RMG-I cells, luciferase, cherry-pick, dose response (AID 687027); format: functional, cell-based;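 note: luciferase reporter driven by Pax8 target thyroperoxidase promoter measured by SteadyGlo luminescence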
Sequence of Paired box protein Pax-8 (Q06710 whole entry): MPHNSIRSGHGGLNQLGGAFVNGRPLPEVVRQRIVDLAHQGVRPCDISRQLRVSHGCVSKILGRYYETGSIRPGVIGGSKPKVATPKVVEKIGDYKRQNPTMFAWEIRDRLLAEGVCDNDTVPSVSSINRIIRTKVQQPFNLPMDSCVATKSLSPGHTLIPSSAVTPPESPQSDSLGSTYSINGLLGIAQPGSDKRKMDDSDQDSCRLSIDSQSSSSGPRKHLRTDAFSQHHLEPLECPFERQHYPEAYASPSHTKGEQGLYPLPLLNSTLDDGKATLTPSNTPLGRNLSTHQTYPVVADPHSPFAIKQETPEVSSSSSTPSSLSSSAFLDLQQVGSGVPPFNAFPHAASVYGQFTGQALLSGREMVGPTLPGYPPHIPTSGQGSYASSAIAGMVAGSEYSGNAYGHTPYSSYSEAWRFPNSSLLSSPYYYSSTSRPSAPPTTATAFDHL

[5] = molecular target: T5, Heat shock factor protein 1 (Mus musculus, UniProt P38532); experiment: decrease of HSF1-responsive luciferase luminescence – cell-based, NIH3T3, dose retest, confirmation (AID 2382); format: functional;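 note: NIH3T3 fibroblasts with HSF1-driven luciferase reporter stressed by proteasome inhibitor MG132; luminescence from HSF1-driven luciferase expression after 8 hours of MG132 stress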
T5 sequence (P38532 whole entry): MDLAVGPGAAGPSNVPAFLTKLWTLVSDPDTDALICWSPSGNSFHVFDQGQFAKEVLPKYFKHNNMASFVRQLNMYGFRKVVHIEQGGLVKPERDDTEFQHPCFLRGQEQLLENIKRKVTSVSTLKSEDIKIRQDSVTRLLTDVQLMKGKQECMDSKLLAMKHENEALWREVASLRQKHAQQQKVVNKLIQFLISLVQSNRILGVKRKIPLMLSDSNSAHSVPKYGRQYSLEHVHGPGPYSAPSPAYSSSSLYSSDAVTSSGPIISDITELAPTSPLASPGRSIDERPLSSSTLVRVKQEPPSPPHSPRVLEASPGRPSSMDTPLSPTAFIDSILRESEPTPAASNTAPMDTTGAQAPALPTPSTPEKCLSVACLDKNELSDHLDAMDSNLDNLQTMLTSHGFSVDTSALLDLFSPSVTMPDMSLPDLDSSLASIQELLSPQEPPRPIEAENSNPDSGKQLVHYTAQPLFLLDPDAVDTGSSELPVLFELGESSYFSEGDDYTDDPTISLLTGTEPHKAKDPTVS

SMILES: O=C(c1ccccc1F)N1CCN(Cc2ccc3c(c2)OCO3)CC1
- IC50 [1]: 125 µM (active)

SMILES: CCOC(=O)c1c(O)cc(C)cc1Nc1ccccc1
- EC50 [2]: > 150 µM (not active)
- EC50 (Streptokinase A): 139 µM (active)
- EC50 (Streptococcus): > 150 µM (not active)

SMILES: Cc1sc2ncnc(OCC(=O)NC(C)C)c2c1C
- AC50 (Cytochrome P450 2C19): 20 µM (inconclusive)
- IC50 [3]: > 47.1 µM (inactive)
- EC50 [4]: > 53 µM (inactive)
- AC50 (Cytochrome P450 1A2): 31.6 µM (inconclusive)
- AC50 (Cytochrome P450 2C9): 22.4 µM (inconclusive)

SMILES: Cc1ccc(CN2CCN(C3CCOCC3)CC2CCO)cc1 (centres undefined)
- IC50 [3]: > 47.1 µM (inactive)
- EC50 [4]: > 53 µM (inactive)

SMILES: Oc1ccc(N2CCN(Cc3cc4c(cc3Br)OCCO4)CC2)cc1
- IC50 [1]: 66.7 µM (active)

SMILES: Cc1cccc(C(=O)NC(=S)N2CCN(C(=S)NC(=O)c3cccc(C)c3)CC2)c1
- IC50 [3]: > 47.1 µM (inactive)
- EC50 [4]: > 53 µM (inactive)

SMILES: Cc1cc(/C=C2/C(=N)N3C(=NC2=O)SN=C3S(C)(=O)=O)c(C)n1-c1ccc(F)cc1
- EC50 [2]: 9.96 µM (active)
- EC50 (Streptokinase A): > 150 µM (not active)
- EC50 (Streptococcus): > 150 µM (not active)

SMILES: Cc1noc(C)c1-c1nnc(-c2ccc(OC(F)(F)F)cc2)o1
- EC50 [2]: > 150 µM (not active)
- EC50 (Streptokinase A): > 150 µM (not active)
- EC50 (Streptococcus): > 150 µM (not active)

SMILES: Cc1cc2nc(N=C(N)NC(=O)C(C)C)nc(C)c2cc1C
- EC50 (Streptokinase A): > 150 µM (not active)

SMILES: Clc1ccc(-c2nnc(CSc3nnc(-c4cccs4)o3)o2)cc1
- IC50 [3]: > 47.1 µM (inactive)
- EC50 [4]: > 53 µM (inactive)

SMILES: COc1cccc(C2CC(c3cccs3)=NN2C(=S)Nc2ccccc2)c1OC (centres undefined)
- IC50 [3]: > 47.1 µM (inactive)
- EC50 [4]: > 53 µM (inactive)

SMILES: O=C(Nc1ccc([N+](=O)[O-])cn1)c1cc(-c2cccc(Br)c2)nc2ccccc12
- AC50 (Paired box protein Pax-8): 45.6 µM (active)

SMILES: CCOC(=O)c1sc(NC(=O)c2cccc(S(=O)(=O)N3CCN(C)CC3)c2)cc1C
- IC50 [3]: > 47.1 µM (inactive)
- EC50 [4]: > 53 µM (inactive)

SMILES: COc1cc(NC(=O)CSc2ncnc3sc4c(c23)CCCC4)c(C(=O)O)cc1OC
- EC50 [2]: 20.8 µM (active)
- EC50 (Streptokinase A): > 150 µM (not active)
- EC50 (Streptococcus): > 150 µM (not active)

SMILES: O=C(NCc1ccccn1)C1CCN(S(=O)(=O)c2c[nH]cn2)CC1
- IC50 [3]: > 47.1 µM (inactive)
- EC50 [4]: > 53 µM (inactive)

SMILES: COc1ccc(NC2CCCN(C(=O)c3csc(C)n3)C2)cc1 (centres undefined)
- IC50 [1]: 107 µM (active)

SMILES: CC(Oc1cccc(Cl)c1)C(=O)NNC(=O)c1cccnc1 (centres undefined)
- IC50 [3]: > 47.1 µM (inactive)
- EC50 [4]: > 53 µM (inactive)

SMILES: Oc1ccc(/C=N/Nc2nc(N3CCCCCC3)nc(N3CCCCCC3)n2)c(O)c1
- EC50 [2]: 1.13 µM (active)
- EC50 (Streptococcus): 1.86 µM (active)
- IC50 [3]: > 47.1 µM (inactive)
- EC50 [4]: > 53 µM (inactive)

SMILES: Cc1ccc(S(=O)(=O)Nc2ccc3c(c2)C(=O)N([C@H](C)CO)C[C@@H](C)[C@H](CN(C)Cc2ccc(C(F)(F)F)cc2)OCCCC[C@@H](C)O3)cc1
- AC50 (Paired box protein Pax-8): 8.45 µM (active)

SMILES: C[C@@H]1CN([C@H](C)CO)C(=O)c2cc(NC(=O)Nc3ccc(F)cc3)ccc2O[C@@H](C)CCCCO[C@H]1CN(C)S(=O)(=O)c1ccc(F)cc1
- AC50 (Paired box protein Pax-8): 8.62 µM (active)

SMILES: C[C@@H]1CCCCO[C@H](CN(C)Cc2ccc(Cl)c(Cl)c2)[C@@H](C)CN([C@@H](C)CO)C(=O)c2cc(NS(=O)(=O)c3ccc(Cl)cc3)ccc2O1
- AC50 (Paired box protein Pax-8): 10.2 µM (active)

SMILES: OC(C/N=c1\sc2ccccc2n1CC(O)COc1ccccc1)COc1ccccc1 (centres undefined)
- EC50 [2]: 8.85 µM (active)
- EC50 (Streptokinase A): 10.3 µM (active)
- EC50 (Streptococcus): > 150 µM (not active)

SMILES: O=C1N=C(N/N=C/c2cccs2)SC1Cc1ccc(Cl)c(Cl)c1 (centres undefined)
- EC50 [5]: 21 µM (active)
- EC50 (Streptokinase A): > 150 µM (not active)
- EC50 (Streptococcus): > 150 µM (not active)
